Results: patent US20020120098A1, “Enhanced stimulation of erythropoiesis” (priority 1996, published 2002)

Test system: CFU-E
Experiment: Colony formation assay, adult peripheral blood LDMNC: CFU-E
Assay type: cell-based, human
Conditions: for fold increase in CFU-E, adult blood, 0.2 U/ml Epo: ~20% O2, compared to untreated controls (no addition) at 0.2 U/ml Epo; for increase in number of CFU-E progenitors, adult blood, ambient O2 (in words): 2 U/ml Epo
Method: Blood was collected with informed consent from the antecubital vein of healthy adult human volunteers into vacutainers containing 143 USP U/ml sodium heparin. Low density mononuclear cells (LDMNC) were isolated by centrifugation over a density gradient as described in Example 1. Plastic adherent cells were removed by an overnight incubation in a tissue culture flask and the non-adherent cells were placed directly in a CFA. Conditions for the CFA are similar to those described in Examples 1-4.
The mean fold increase in adult blood BFU-E, CFU-E and CFU-GM progenitor number produced by 1.0 mg/ml HAo (15.6 μM) or HEMOLINK™ (15.6 μM), 100 μM hemin or 250 μM FeCl3 is shown in FIG. 9 (n=3). Cultures were maintained at ambient oxygen tensions (˜20% O2) for 14 days. The fold increase in colonies is expressed relative to control cells treated only with the respective vehicles. […] The magnitude of this increase was greater for adult than cord blood LDMNC.
The mean fold increase in adult blood BFU-E, CFU-E and CFU-GM progenitor number at 5% O2 is shown in FIG. 10 with the same additives. Results are expressed relative to control cells treated only with the respective vehicles and cultured at ambient oxygen tensions (˜20% O2). Reduced oxygen tensions (5% O)2 enhanced the growth of BFU-E which was further increased by the addition of HAo, HEMOLINK™, hemin or FeCl3. All agents stimulated a similar increase in BFU-E number (˜9-11-fold) at 5% O2 compared to untreated control cells at ambient oxygen tensions.
Mean fold increase in adult blood BFU-E, CFU-E and CFU-GM progenitor number in the presence of reduced Epo (0.2 U/ml) (n=3) at 20% O2 is shown in FIG. 11 with and without (no addition) the additives used in FIG. 9. Results are expressed relative to control cells at 2 U/ml Epo treated only with the respective vehicles (solid line at fold expansion=1.0). […] As with cord blood, CFU-GM numbers were unaffected by reductions in Epo. The addition of HAo or HEMOLINK™ to CFAs containing 0.2 U/ml Epo stimulated ˜4.5- and ˜3.5-fold increases in BFU-E and CFU-E, respectively, compared to untreated controls (no addition), restoring the progenitor number to that obtained at 2 U/ml Epo. Hemin stimulated the greatest increase in BFU-E and CFU-E (˜9- and ˜6-fold, respectively) at 0.2 U/ml Epo versus the untreated controls (no addition). FeCl3 stimulated only a ˜2-fold increase in erythroid progenitor number at 0.2 U/ml Epo.
Mean fold increase in adult blood BFU-E, CFU-E and CFU-GM progenitor number at 5% O2 in the presence of reduced Epo (0.2 U/ml) (n=3) is shown in FIG. 12 with and without the additives used in FIG. 9. Results are expressed relative to control cells at 2 U/ml Epo treated only with the respective vehicles and cultured at ambient oxygen tensions (˜20% O2) for 14 days (solid line at fold expansion=1.0). The number of erythroid progenitors stimulated at 5% O2 and 0.2 U/ml Epo was similar to that obtained with 2.0 U/ml Epo maintained at ambient oxygen tensions (no addition).

Row | Molecule | fold increase in CFU-E, adult blood, 0.2 U/ml Epo | increase in number of CFU-E progenitors, adult blood, ambient O2 (in words)
1 | C=CC1=C(C)C2=Cc3c(C=C)c(C)c4[n]3[Fe-2]35([Cl])[n]6c(c(C)c(CCC(=O)O)c6=CC6=[N+]3C(=C4)C(C)=C6CCC(=O)O)=CC1=[N+]25 [hemin] | ~6 fold | slight increases
2 | HAo: adult human hemoglobin obtained from red blood cells and purified by displacement chromatography; uncross linked product | ~3.5 fold | slight increases
3 | HEMOLINK™: chemically crosslinked hemoglobin prepared by treating human hemoglobin with a polyaldehyde (O-raffinose) | ~3.5 fold | slight increases
